Reference: US20230285570A1, “THERAPEUTICALLY USEFUL CURE-PRO MOLECULES FOR E3 LIGASE MEDIATED DEGRADATION OF PROTEINS, AND METHODS OF MAKING AND USING THEM” (CORNELL UNIVERSITY, priority 2020, published 2023)
Entries after “also recorded” stand apart in the source; their conditions may differ.

How the values were obtained:
Assay type in all cases: cell-based
BRD4 [1] = molecular target: T1, BRD4 (Homo sapiens, UniProt O60885); assay: CURE-PRO-mediated BRD4 degradation in MCF7 cells, Western blot; set-up: endogenous in cells; conditions: 1:1 with VHL ligand 8305, MCF7, 24 h, 100 nM-10 μM
Description: (§1) Namalwa, Ramosm HeLa, MCF7, or HT29 HCT116 cells (2.5-3×10^6) were treated for 24 hours with the indicated compounds solubilized in DMSO. The cells were washed in ice-cold PBS and were then lysed in RIPA lysis buffer (150 mM NaCl, 5 mM EDTA, 1% NP-40, 0.5% sodium deoxycholate, 0.1% SDS, 50 mM Tris, pH 8.0.) with Roche protease inhibitor complete cocktail and phosphatase inhibitors (10 mM sodium fluoride, 10 mM sodium pyrophosphate, 1 mM sodium orthovanadate and 20 mM β-glycerophosphate). The total protein concentrations were determined by Bradford Protein Assay (Pierce) and 10-20 μg of protein was loaded onto 4-15% Tris-Glycine gradient gels (Biorad). After standard gel electrophoresis, the separated proteins were transferred to PVDF membrane by wet transfer. The immunoblots were then blocked for 1 hour in 5% skim milk in TBST or 5% BSA in TBST, according to manufacturer's instructions, before an overnight incubation at 4° C. with indicated antibodies and membranes. Membranes were then incubated with the appropriate horseradish peroxidase-conjugated secondary antibodies (1:5,000 dilution) for 1 h at room temperature and the bands were visualized using the Clarity Max Western ECL Substrate (Biorad) and the ChemiDoc Imaging System (Biorad). Signal was detected with ECL Western Blotting Substrate (Pierce) and X-ray film processed with a Konica SRX-101 X-ray film processor or captured by Bio-Rad's Chemidoc Imaging system.
MCF7 cells (3×10^6) were treated for 24 h with the compounds solubilized in DMSO. Compounds were added at 100 nM-10 μM. Standardized protein samples were electrophoresed and imaged as described in the Immunoblotting section above. FIG. 69 depicts the CURE-PRO-mediated BRD4 degradation for the BRD-E9 monomer and VHL ligands 8305 combined in a 1:1 ratio, and FIG. 70 depicts the CURE-PRO-mediated BRD4 degradation for the BRD-E20 monomer and 8305.
MCF7 cells (3×10^6) were treated for 24 h with the compounds solubilized in DMSO. Compounds were added at 1 μM-10 μM. Standardized protein samples were electrophoresed and imaged as described in the Immunoblotting section above. FIG. 71 depicts the CURE-PRO-mediated BRD4 degradation for the BRD-E50 monomer and VHL ligands 8305 and 8304 combined in a 1:1 ratio.

BRD4 [2] = molecular target: T1, BRD4; assay: Summary of BRD4 degradation by CURE-PRO pairs, estimated from Western Blot or WES; set-up: endogenous in cells; conditions: for Degradation of BRD4, combination with CRBN ligand 8047: Table 1, aryl-boronic acid BRD4 ligand + 8047
In short: (§2)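 Namalwa, Ramos, HeLa, MCF7, HT29 or HCT116 cells treated 24 h with compounds in DMSO; RIPA lysates analysed by Western blot (ECL) or capillary WES immunodetection. Check mark denotes 30% to 70% or higher protein degradation.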

caspase 3/7 = assay: Caspase-Glo 3/7 assay, Namalwa cells; conditions: 1:1 with CRBN ligand 8047, Namalwa, 24 h
Description: Caspase-glo® assay (Promega) was conducted following the manufacturer's recommendations. Cells were seeded at a density of 5000 cells/well in a white 96 well plates (Corning, #3917) in a total volume of 100 μl with respective monomers, combinations of BRD ligands together with E3 ligase ligands or vehicle control treatment. After a 24 h incubation, 100 μl of the […] substrate was added per well and luminescence was read on a Spectramax M5 (Molecular Devices).
Namalwa cells (5×10^4) were treated for 24 hours with the compounds solubilized in DMSO. FIG. 57 is a bar graph depiction of fold increase of apoptosis assessed via caspase 3/7 activity using the Caspase-Glo assay (Promega) described above.
Molm-13 (FIG. 76A) or Namalwa (FIG. 76B) cells (5×10^4) were treated for 24 hours with the compounds solubilized in DMSO in white 96 well plates (10 nM-10 μM solubilized in DMSO). FIG. 76 is a bar graph depiction of fold increase of apoptosis assessed via caspase 3/7 activity using the Caspase-Glo assay (Promega) described above.

BRD4 [3] = molecular target: T1, BRD4; assay: CURE-PRO-mediated BRD4 degradation in HeLa cells, Western blot; set-up: endogenous in cells; host or cells: HeLa; conditions: 24 h
In short: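 HeLa cells (2.5×10^6) treated 24 h with DMSO-solubilized compounds, degrader pairs combined 1:1, at 1 nM-1 μM, 1-10 μM, 10 μM or 10 and 100 μM each depending on series. RIPA lysates (10-20 μg protein) run on SDS-PAGE and immunoblotted for BRD4 with ECL detection.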

BRD4 [4] = molecular target: T1, BRD4; assay: CURE-PRO-mediated BRD4 degradation in HeLa cells, WES capillary electrophoresis (ProteinSimple); set-up: endogenous in cells; host or cells: HeLa
Description: All cell lines were purchased from ATCC or DSMZ and grown at 37° C. with 5% CO2. Human HeLa cells were cultured in complete growth medium (Dulbecco's modified Eagle's medium (DMEM) supplemented with 10% FBS); MCF7 cells were cultured in complete growth medium (Dulbecco's modified Eagle's medium (DMEM) supplemented with 10% FBS and 0.01 mg/ml human recombinant insulin (Sigma Aldrich); Namalwa and Ramos cells were cultured in complete growth medium (RPMI 1640 medium supplemented with 10% FBS); HCT116 and HT29 cells were cultured in complete growth medium (McCoy's 5a Medium supplemented with 10% FBS). For cellular degradation of BRD4 studies cells were seeded in a 12-well plate at 70-80% confluency, allowed to attach overnight, and incubated with the indicated compounds for the indicated time. When indicated, a 15-minute pretreatment with 10 μM pomalidomide, 10 μM VHL298, 10 μM Nutlin3a, 1 μM MG-132 or 1 μM Carfilzomib was performed before the addition of CURE-PROs. For washout studies, after CURE-PRO treatment, media was aspirated and incubated with complete medium for the indicated time before lysis.
(§3) WES Simple analysis was performed on WES system (ProteinSimple-Biotechne) according to the manufacturer's instructions. Total protein concentrations of cell lysates were determined by the Pierce BCA kit (Thermo Fisher). 3 μL of 0.3 μg/μL of the protein lysate was loaded onto a 12- to 230-kDa WES assay plate (ProteinSimple) where 300 nL sample was withdrawn through a capillary, subjected to electrophoretic separation of proteins by size, and followed by the simultaneous, HRP-based detection of proteins using the Anti-Rabbit Detection Module (Proteinsimple: #DM-001). The electropherograms were checked then the automatic peak detection was manually corrected if it was required.
HeLa cells (2.5×10^6) were treated for 4-24 hours with the compounds solubilized in DMSO. After 4 hours, indicated points were washed and cells were left in full growth media. Compounds were added at 10 μM each. Standardized protein samples were electrophoresed and imaged as described in the WES ProteinSimple section above. FIGS. 44 and 45 depict the time-dependence of CURE-PRO-mediated BRD4 degradation with the BRD-E52 ligand (FIG. 44) and BRD-E72 ligand (FIG. 45), both JQ1 derivatives comprising of boronic acid linkers, and the CRBN binding ligands (8046, 8047, and 8066), pomalidomide derivatives comprising diol linkers.
HeLa cells (2.5×10^6) were treated for 24 hours with the compounds solubilized in DMSO. Compounds were added at 100 nM-10 μM each. Standardized protein samples were electrophoresed and imaged as described in the WES ProteinSimple section above. FIG. 46 depicts the concentration-dependence of CURE-PRO-mediated BRD4 degradation and the requirement for monomer dimerization.

c-MYC [5] = molecular target: T2, c-MYC (Homo sapiens, UniProt P01106); assay: Summary of C-MYC degradation by CURE-PRO pairs, estimated from Western Blot or WES; set-up: endogenous in cells; host or cells: HT29; conditions: for Degradation of C-MYC, combination with MDM2 ligand 8310: Table 11, aromatic 1,2-diol MYC ligand + 8310; for Degradation of C-MYC, combination with MDM2 ligand 8312: Table 11, aromatic 1,2-diol MYC ligand + 8312
In short: as §2

c-MYC [6] = molecular target: T2, c-MYC; assay: CURE-PRO-mediated c-MYC degradation in HCT1116 cells, Western blot or WES; set-up: HT29 cells (2.5×10^6) were treated for 24 h with the compounds solubilized in DMSO; endogenous in cells; host or cells: HT29; conditions: 1:1 with MDM2 ligand 8310, HCT1116, 24 h, 10 nM-10 μM each
c-MYC [7] = molecular target: T2, c-MYC; assay: as above; set-up: endogenous in cells; host or cells: HT29; conditions: 1:1 with MDM2 ligand 8312, HCT1116, 24 h, 10 nM-10 μM each
Description: as §1, §3
HCT1116 cells (2.5×10^6) were treated for 24 h with the compounds solubilized in DMSO. Compounds were added at 10 nM-10 μM each. Standardized protein samples were electrophoresed and imaged as described in the immunoblotting or WES (Proteinsimple) sections above. c-MYC monomers, MYC-N20 (FIG. 100, a 10074-G5 derivative comprising diol linkers), and MYC-N10 (FIG. 101), MYC-N6 (FIG. 102), and MYC-N9 (FIG. 103) (10058-F4 derivatives comprising diol linkers), and MDM2 ligands, 8310 and 8312 (Nutlin 3a derivatives comprising boronic acid linkers) were combined in a 1:1 ratio.
HCT1116 cells (2.5×10^6) were treated for 24 h with the compounds solubilized in DMSO. Compounds were added at 1 μM-10 μM each.

T2 sequence (P01106 whole entry): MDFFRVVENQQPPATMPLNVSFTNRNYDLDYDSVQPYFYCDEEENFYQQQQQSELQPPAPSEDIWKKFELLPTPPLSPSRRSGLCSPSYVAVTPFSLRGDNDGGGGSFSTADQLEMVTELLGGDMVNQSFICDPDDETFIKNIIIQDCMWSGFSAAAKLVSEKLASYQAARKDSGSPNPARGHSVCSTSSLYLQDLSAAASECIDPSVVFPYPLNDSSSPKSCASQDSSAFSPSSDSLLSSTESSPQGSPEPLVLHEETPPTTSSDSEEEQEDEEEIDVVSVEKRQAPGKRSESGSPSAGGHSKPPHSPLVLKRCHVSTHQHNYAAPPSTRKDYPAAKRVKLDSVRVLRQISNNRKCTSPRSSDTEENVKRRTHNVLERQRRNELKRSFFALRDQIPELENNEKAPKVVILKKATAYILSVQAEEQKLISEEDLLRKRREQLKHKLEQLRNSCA

Row | Compound | Degradation of BRD4, combination with CRBN ligand 8047 (BRD4 [2]) | Degradation of C-MYC, combination with MDM2 ligand 8310 (c-MYC [5]) | c-MYC degradation (c-MYC [6]) | c-MYC degradation (c-MYC [7]) | Degradation of C-MYC, combination with MDM2 ligand 8312 (c-MYC [5]) | also measured
1 | COc1ccc2c(c1)C(c1ccc(Cl)cc1)=N[C@@H](CC(=O)NCc1ccc(B(O)O)cc1)c1nnc(C)n1-2 [BRD-E9, (4-((2-((4S)-6-(4-chlorophenyl)-8-methoxy-1-methyl-4H-benzo[f][1,2,4]triazolo[4,3-a][1,4]diazepin-4-yl)acetamido)methyl)phenyl)boronic acid] | √ (A black check mark indicates efficacy of 30% to 70% or higher protein degradation) |  |  |  |  | BRD4 degradation (BRD4 [1]): there is degradation of BRD4; Degradation of BRD4, combination with VHL ligand 8305 (BRD4 [2]; Table 3, aryl-boronic acid BRD4 ligand + 8305): √ (A black check mark indicates efficacy of 30% to 70% or higher protein degradation)
2 | CCNC(=O)C[C@@H]1N=C(c2ccc(Sc3cccc(B(O)O)c3)cc2)c2cc(OC)ccc2-n2c(C)nnc21 [BRD-E52, (3-((4-((4S)-4-(2-(ethylamino)-2-oxoethyl)-8-methoxy-1-methyl-4H-benzo[f][1,2,4]triazolo[4,3-a][1,4]diazepin-6-yl)phenyl)thio)phenyl)boronic acid] | √ (A black check mark indicates efficacy of 30% to 70% or higher protein degradation) |  |  |  |  | caspase 3/7 activation (caspase 3/7): demonstrates activation of caspase 3/7; also recorded: marked caspase activation; Degradation of BRD4, combination with CRBN ligand 8066 (BRD4 [2]; Table 1, aryl-boronic acid BRD4 ligand + 8066): √ (A black check mark indicates efficacy of 30% to 70% or higher protein degradation); BRD4 degradation after pomalidomide preincubation (BRD4 [3]; 1:1 with 8047, 10 μM, pomalidomide preincubated 15 min at equimolar concentration): inhibition of CURE-PRO-mediated BRD4 degradation; BRD4 degradation (BRD4 [3]; BRD ligand with pomalidomide (no 8047), HeLa, 10 μM): failed to induce BRD4 degradation; BRD4 degradation (BRD4 [3]; co-treated 1:1 with CRBN ligand 8047, HeLa, 10 μM each): causes degradation of BRD4; also recorded: CURE-PRO-mediated degradation of BRD4; sustained BRD4 degradation after drugs are washed out (BRD4 [4]; co-dosed with 8047, 10 μM each, washed after 4 h): up to 8 h; BRD4 degradation, time course (BRD4 [4]; co-dosed with CRBN ligand 8047, HeLa, 10 μM each, 4-24 h): marked BRD4 degradation after 4 h; concentration-dependent BRD4 degradation (BRD4 [4]; co-dosed with CRBN ligand 8047, HeLa, 24 h, 100 nM-10 μM each): marked BRD4 degradation; concentration from which BRD4 protein expression decreases (BRD4 [4]; with CRBN ligand 8047, HeLa, 24 h, 100 nM-10 μM each): ≥ 300 nM
3 | CCc1ccc(/C=C2\SC(=O)N(CCCc3cccc(O)c3O)C2=O)cc1 [MYC-N6] |  | √ (A black check mark indicates efficacy of 30% to 70% or higher protein degradation) | caused degradation of c-MYC protein; also recorded: Degradation was noted |  |  | 
4 | CCc1ccc(/C=C2\SC(=O)N(CCOCCNC(=O)c3cccc(O)c3O)C2=O)cc1 [MYC-N10] |  |  | caused degradation of c-MYC at higher concentrations; also recorded: Degradation was noted | caused degradation of c-MYC at higher concentrations; also recorded: Degradation was noted | √ (A black check mark indicates efficacy of 30% to 70% or higher protein degradation) | 
5 | O=C(NCCNC(=O)c1cccc(O)c1O)c1ccc(Nc2ccc([N+](=O)[O-])c3nonc23)cc1 [MYC-N20] |  | √ (A black check mark indicates efficacy of 30% to 70% or higher protein degradation) | caused degradation of c-MYC protein | negligible effects | √ (A black check mark indicates efficacy of 30% to 70% or higher protein degradation) | 
